Assay results taken from paper PMC2858699, “Proteolysis of Human Thrombin Generates Novel Host Defense Peptides” (PLoS Pathogens, 2010).
≈ marks a conversion by molar mass, not a printed value. Where a SMILES comes first, the peptide text is derived from it.

Legend:
E. coli ATCC 25922 [1] = assay type: cell-based
Protocol: (§1) MIC assay was carried out by a microtiter broth dilution method as previously described in the NCSLA guidelines. Hemolysis, MTT, and LDH assays were performed as previously described (See Text S1).
(§2) MIC assay was carried out by a microtiter broth dilution method as previously described in the NCSLA guidelines (Wiegand, I., Hilpert, K. & Hancock, R.E. Agar and broth dilution methods to determine the minimal inhibitory concentration (MIC) of antimicrobial substances. Nat Protoc 3, 163-175 (2008)). In brief, fresh overnight colonies were suspended to a turbidity of 0.5 units and further diluted in Mueller-Hinton broth (Becton Dickinson). […] Ten µl of each concentration was added to each corresponding well of a 96-well microtiter plate (polypropylene, Costar Corp.) and 90 µl of bacteria (1x10^5) in MH medium added. The plate was incubated at 37 °C for 16-18 h. MIC was taken as the lowest concentration where no visual growth of bacteria was detected.
(§3) Table S2. […] The analysis was performed as described in Wiegand et al. and according to NCSLA guidelines. Additional clinical isolates were obtained from the Department of Bacteriology, Lund University Hospital. P. aeruginosa, E. coli and E. faecalis isolates were initially derived from patients with chronic ulcers, S. aureus from patients with atopic dermatitis. The S. pyogenes strain AP1 was from the WHO Collaborating Center for References and Research on Streptococci (Prague, Czech Republic).

[2] = test system: E. coli Clinical isolate 37.4; assay type: cell-based
Protocol: as §1, §2, §3

[3] = test system: E. coli Clinical isolate 47.1; assay type: cell-based
Protocol: as §1, §2, §3

[4] = test system: E. coli Clinical isolate 49.1; assay type: cell-based
Protocol: as §1, §2, §3

[5] = test system: E. faecalis Clinical isolate 2374; assay type: cell-based
Protocol: as §1, §2, §3

P. aeruginosa ATCC 27853 = assay type: cell-based
Protocol: as §1, §2, §3

[6] = test system: P. aeruginosa Clinical isolate 10.5; assay type: cell-based
Protocol: as §1, §2, §3

[7] = test system: P. aeruginosa Clinical isolate 13.2; assay type: cell-based
Protocol: as §1, §2, §3

[8] = test system: P. aeruginosa Clinical isolate 15159; assay type: cell-based
Protocol: as §1, §2, §3

[9] = test system: P. aeruginosa Clinical isolate 18488; assay type: cell-based
Protocol: as §1, §2, §3

[10] = test system: P. aeruginosa Clinical isolate 23.1; assay type: cell-based
Protocol: as §1, §2, §3

[11] = test system: P. aeruginosa Clinical isolate 27.1; assay type: cell-based
Protocol: as §1, §2, §3

[12] = test system: P. aeruginosa Clinical isolate 51.1; assay type: cell-based
Protocol: as §1, §2, §3

[13] = test system: P. aeruginosa Clinical isolate 62.1; assay type: cell-based
Protocol: as §1, §2, §3

S. aureus ATCC 29213 = assay type: cell-based
Protocol: as §1, §2, §3

[14] = test system: S. aureus Clinical isolate 1086; assay type: cell-based
Protocol: as §1, §2, §3

[15] = test system: S. aureus Clinical isolate 1088; assay type: cell-based
Protocol: as §1, §2, §3

[16] = test system: S. aureus Clinical isolate 1090; assay type: cell-based
Protocol: as §1, §2, §3

[17] = test system: S. aureus Clinical isolate 13430; assay type: cell-based
Protocol: as §1, §2, §3

[18] = test system: S. aureus Clinical isolate 14312; assay type: cell-based
Protocol: as §1, §2, §3

[19] = test system: S. aureus Clinical isolate 16065; assay type: cell-based
Protocol: as §1, §2, §3

[20] = test system: S. aureus Clinical isolate 18319; assay type: cell-based
Protocol: as §1, §2, §3

[21] = test system: S. aureus Clinical isolate 18800; assay type: cell-based
Protocol: as §1, §2, §3

S. aureus FDA 486 = assay type: cell-based
Protocol: as §1, §2, §3

S. pyogenes AP1 = assay type: cell-based
Protocol: as §1, §2, §3

E. coli ATCC 25922 [22] = assay: Viable count assay; assay type: cell-based; conditions: E. coli ATCC 25922 2×10^6 cfu/ml, 50 µl, 10 mM Tris pH 7.4 with 5 mM glucose, 37°C 2 h; 3 and 6 µM
Protocol: 2×10^6 cfu/ml of bacteria were incubated in 50 µl with proteins and peptides at a concentration of 3 and 6 µM, respectively.
E. coli ATCC 25922 bacteria were grown to mid-logarithmic phase in Todd-Hewitt (TH) medium. Bacteria were washed and re-suspended in 10 mM Tris, pH 7.4 containing 5 mM glucose. […] Serial dilutions of the incubation mixtures were plated on TH agar, followed by incubation at 37°C overnight and cfu determination.

[23] = Liposome leakage assay (carboxyfluorescein release)
Protocol: (E) Effects of the indicated peptides on liposome leakage. The membrane permeabilizing effect was recorded by measuring fluorescence release of carboxyfluorescein from PA (negatively charged) liposomes. The experiments were performed in 10 mM Tris-buffer, in absence and presence of 0.15 M NaCl. Values represents mean of triplicate samples.
Dry lipid films were prepared by dissolving either dioleoylphosphatidylethanolamine (Avanti Polar Lipids, Alabaster, AL) (70 mol%) and dioleoylphosphatidylglycerol (30 mol%) in chloroform, and then removing the solvent by evaporation under vacuum overnight. Subsequently, buffer solution containing 10 mM Tris, pH 7.4, either with or without additional 150 mM NaCl, was added together with 0.1 M carboxyfluorescein (CF) (Sigma). After hydration, the lipid mixture was subjected to eight freeze-thaw cycles consisting of freezing in liquid nitrogen and heating to 60°C. Unilamellar liposomes with a diameter of about 130 nm (as found with cryo-TEM; results not shown) were generated by multiple extrusions through polycarbonate filters (pore size 100 nm) mounted in a LipoFast miniextruder (Avestin). Untrapped carboxyfluorescein was then removed by filtration through two subsequent Sephadex G-50 columns with the relevant Tris buffer as eluent. […] The CF release was monitored by fluorescence at 520 nm from a liposome dispersion (10 mM lipid in 10 mM Tris pH 7.4). […]

E. coli = assay: Radial diffusion assay (RDA), low-salt conditions; assay type: cell-based; conditions: 6 µl per well (3.6 µg protein), not digested with neutrophil elastase
Protocol: Figure 1 Generation of antimicrobial peptides by degradation of prothrombin and thrombin. (A) Degradation of the proteins was performed at 37°C for the indicated time periods. RDA was performed in low-salt conditions using E. coli as test organism. Each 4 mm-diameter well was loaded with 6 µl of the solution (corresponding to 3.6 µg protein). The bar diagrams indicate the diameter of the zones of clearance obtained (in mm). The inset visualizes the results obtained with prothrombin. C, buffer; NE, neutrophil elastase only. LL-37 (100 µM) was included for comparison. (B) Intact prothrombin (PT) and thrombin (T), and cleavage products from the different incubations with neutrophil elastase (NE, indicated above) were analyzed by SDS-PAGE (16.5% Tris-Tricine gel). The gels are overloaded (12 µg) in order to visualize generation of fragments of low molecular masses. Rightmost two lanes show PT and T proteins at 2 µg.
Figure 2 Activities of peptides derived from prothrombin. (A) Sequence of prothrombin and overlapping peptides (indicated by numbers). In addition to the regular overlapping peptides, peptide regions of high net charge, and/or content of predicted helical regions (Agadir; http://www.embl-heidelberg.de/Services/serrano/agadir/agadir-start.html) were selected. […] (B) Overlapping peptides of prothrombin were analyzed for antimicrobial activities against E. coli. […]

Q: With `CC[C@H](C)[C@H](N)C(=O)N[C@@H](CC(C)C)C(=O)N[C@@H](CCCNC(=N)N)C(=O)N[C@@H](Cc1c[nH]c2ccccc12)C(=O)N1CCC[C@H]1C(=O)N[C@@H](Cc1c[nH]c2ccccc12)C(=O)N[C@@H](Cc1c[nH]c2ccccc12)C(=O)N1CCC[C@H]1C(=O)N[C@@H](Cc1c[nH]c2ccccc12)C(=O)N[C@@H](CCCNC(=N)N)C(=O)N[C@@H](CCCNC(=N)N)C(=O)N[C@@H](CCCCN)C(N)=O` [Omiganan] (H-ILRWPWWPWRRK-NH2) as the molecule, how does the MIC (E. coli ATCC 25922 [1]) read?
A: 20 µM (≈ 35.6 µg/mL)

Q: And the MIC [2]?
A: 20 µM (≈ 35.6 µg/mL)

Q: What about the MIC [3] of the same molecule?
A: 20 µM (≈ 35.6 µg/mL)

Q: And the MIC [4]?
A: 10 µM (≈ 17.8 µg/mL)

Q: And the MIC [5]?
A: 160 µM (≈ 285 µg/mL)

Q: And the MIC (P. aeruginosa ATCC 27853)?
A: 160 µM (≈ 285 µg/mL)

Q: What about the MIC [6] of the same molecule?
A: 40 µM (≈ 71.2 µg/mL)

Q: And the MIC [7]?
A: 40 µM (≈ 71.2 µg/mL)

Q: And the MIC [8]?
A: 20 µM (≈ 35.6 µg/mL)

Q: What about the MIC [9] of the same molecule?
A: 20 µM (≈ 35.6 µg/mL)

Q: And the MIC [10]?
A: 40 µM (≈ 71.2 µg/mL)

Q: And the MIC [11]?
A: >160 µM

Q: And the MIC [12]?
A: 80 µM (≈ 142 µg/mL)

Q: What about the MIC [13] of the same molecule?
A: 20 µM (≈ 35.6 µg/mL)

Q: What about the MIC (S. aureus ATCC 29213) of the same molecule?
A: 10 µM (≈ 17.8 µg/mL)

Q: What about the MIC [14] of the same molecule?
A: 10 µM (≈ 17.8 µg/mL)

Q: What about the MIC [15] of the same molecule?
A: 20 µM (≈ 35.6 µg/mL)

Q: What about the MIC [16] of the same molecule?
A: 80 µM (≈ 142 µg/mL)

Q: And the MIC [17]?
A: 10 µM (≈ 17.8 µg/mL)

Q: What about the MIC [18] of the same molecule?
A: 20 µM (≈ 35.6 µg/mL)

Q: And the MIC [19]?
A: 5 µM (≈ 8.9 µg/mL)

Q: And the MIC [20]?
A: 20 µM (≈ 35.6 µg/mL)

Q: What about the MIC [21] of the same molecule?
A: 2.5 µM (≈ 4.45 µg/mL)

Q: What about the MIC (S. aureus FDA 486) of the same molecule?
A: 20 µM (≈ 35.6 µg/mL)

Q: What about the MIC (S. pyogenes AP1) of the same molecule?
A: 5 µM (≈ 8.9 µg/mL)

Q: For VFRLKKWIQKVIDQFGE [VFR17], which “antibacterial activity in viable count assay” value (E. coli ATCC 25922 [22]) is on record?
A: significant antibacterial activity

Q: What about the “leakage of liposomes (carboxyfluorescein release)” value ([23]; negatively charged liposomes, 10 mM Tris pH 7.4, absence and presence of 0.15 M NaCl, triplicate) of the same molecule?
A: induced leakage of liposomes

Q: What about the “time to reach ∼80% of the maximum leakage” value ([23]; peptide at 1 µM, data not shown) of the same molecule?
A: ≤ 200 s

Q: With thrombin as the molecule, how does the “antimicrobial activity in RDA, intact proteins” value (E. coli) read?
A: inactive
